These results are taken from ChEMBL document CHEMBL4837260, “Structure-Guided Design of a Small-Molecule Activator of Sirtuin-3 that Modulates Autophagy in Triple Negative Breast Cancer” (J Med Chem, 2021).

The structures appear in SMILES notation.

The target of series [1] is T1, NAD-dependent protein deacetylase sirtuin-3, mitochondrial (Homo sapiens, UniProt Q9NTG7).
T1 sequence (Q9NTG7 whole entry): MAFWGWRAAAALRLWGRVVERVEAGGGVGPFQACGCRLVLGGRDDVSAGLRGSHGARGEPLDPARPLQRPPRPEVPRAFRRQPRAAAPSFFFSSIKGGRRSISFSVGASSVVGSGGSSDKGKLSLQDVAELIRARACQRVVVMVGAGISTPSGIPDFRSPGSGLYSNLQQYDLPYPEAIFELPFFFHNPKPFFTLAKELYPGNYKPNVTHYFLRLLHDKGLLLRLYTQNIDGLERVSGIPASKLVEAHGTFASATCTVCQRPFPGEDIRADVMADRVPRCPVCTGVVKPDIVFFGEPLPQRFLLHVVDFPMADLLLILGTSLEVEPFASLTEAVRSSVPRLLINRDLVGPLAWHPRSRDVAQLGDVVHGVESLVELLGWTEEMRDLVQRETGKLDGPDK
As to the kind of experiment: Activation of recombinant human SIRT3 assessed as lysyl deacetylase activity using (Gln-Pro-Lys-Lys(Ac)) peptide substrate by fluorescent assay.

The next series relates to HL-60. As to the kind of experiment: Antiproliferative activity against human HL-60 cells measured after 24 hrs by MTT assay. The note with it: HL-60, 24 h. It is filed as functional, cell-based. (In general: Formazan colour is commonly taken as a measure of viable cells.)
A further series relates to MDA-MB-231. As to the kind of experiment: Antiproliferative activity against human MDA-MB-231 cells measured after 24 hrs by MTT assay. It is filed as functional, cell-based. The conditions noted are these: MDA-MB-231, 24 h.
A further series has as its system U-937. The series can be described thus: Antiproliferative activity against human U-937 cells measured after 24 hrs by MTT assay. The note with it: U-937, 24 h. It is filed as functional, cell-based.
Another series concerns MCF7. The series can be described thus: Antiproliferative activity against human MCF7 cells measured after 24 hrs by MTT assay. It is filed as functional, cell-based. The note with it: MCF7, 24 h.
Series [2] in a line: Toxicity in BALB/c mouse xenografted with human MDA-MB-231 cells assessed as change in body weight at 100 mg/kg once daily for 1 week. Type of series: organism-based. The note with it: in vivo, 168 h, time 1 weeks. For orientation: Xenograft models place foreign cells or tissue in a host animal.
The nature of series [3]: Toxicity in BALB/c mouse xenografted with human MDA-MB-231 cells assessed as widening of the pulmonary septum and more cellular components at 100 mg/kg once daily for 1 week by H&E staining. Type of series: organism-based. The conditions noted are these: in vivo, 168 h, time 1 weeks.
The nature of series [4]: Toxicity in BALB/c mouse xenografted with human MDA-MB-231 cells assessed as change in body weight at 25 mg/kg once daily for 1 week. It is filed as organism-based. The conditions noted are these: in vivo, 168 h, time 1 weeks.

The EC50 is the concentration giving half of the maximal effect. The term IC50 denotes the concentration at which inhibition is half-maximal. Low values mean greater potency in that assay, high ones weaker potency in that assay. Regarding `CCCCc1oc2ccccc2c1C(=O)c1cc(I)c(OCCN2CCCC2)c(I)c1`, in series [1], the EC50 was 16.2 µM. Further, the IC50 with HL-60 is 23.2 µM; with MDA-MB-231, 20.4 µM; in the series on U-937, 31.7 µM; in the series on MCF7 it was more than 50 µM.

For the molecule `CCCCc1oc2ccccc2c1C(=O)c1cc(I)c(OCCN(C)C)c(I)c1`, in series [1], the EC50 was 4.69 µM. Also, the half-maximal inhibitory concentration (IC50) in the series on HL-60 was 8.22 µM; in the series on MDA-MB-231, 6.6 µM; in the series with U-937 it was 8.68 µM; in the series with MCF7, 39.4 µM.

Regarding `CCCCc1oc2ccccc2c1C(=O)c1ccc(OCCN(CC)CC)cc1`, the IC50 in the series on HL-60 came to 2.77 µM; with MDA-MB-231, 19.4 µM; in the series on U-937 it was 3.47 µM; in the series on MCF7, 5.26 µM.

For the molecule `CCCCc1oc2ccccc2c1C(=O)c1cc(I)c(OCCCN2CCN(Cc3ccccc3)CC2)c(I)c1`, the IC50 with HL-60 was more than 50 µM; with MDA-MB-231, 15.7 µM; in the series on U-937 it was 41.4 µM; in the series with MCF7, 28.7 µM.

Turning to `CCCCc1oc2ccccc2c1C(=O)c1cc(I)c(OCCCNCc2ccccc2)c(I)c1`, the EC50 in series [1] stood at 10.7 µM. The IC50 amounted to 4.4 µM with HL-60, 11.6 µM in the series on MDA-MB-231, 2.3 µM with U-937 and 8.05 µM in the series with MCF7.

Consider `CCCCc1oc2ccccc2c1C(=O)c1ccc(OCC(N)=O)cc1`, for which the IC50 is more than 50 µM in the series on HL-60, more than 50 µM in the series with MDA-MB-231, 42.2 µM in the series with U-937 and more than 50 µM with MCF7.

`CCCCc1oc2ccccc2c1C(=O)c1ccc(OCC(=O)Nc2cccc(OC)c2)cc1`: the IC50 with HL-60 was more than 50 µM; in the series on MDA-MB-231, more than 50 µM; with U-937, 24.2 µM; with MCF7, 38.5 µM.

`CCCCc1oc2ccccc2c1C(=O)c1ccc(OCCCC(=O)N(C)Cc2ccccc2)cc1`: the IC50 is more than 50 µM with HL-60, more than 50 µM in the series on MDA-MB-231, 10.5 µM in the series on U-937 and more than 50 µM in the series on MCF7.

For the molecule `CCCCc1oc2ccccc2c1C(=O)c1cc(I)c(OCCCN(C)Cc2ccccc2)c(I)c1`, the IC50 in the series on HL-60 came out at 8.51 µM; with MDA-MB-231 it was 54 µM; in the series on U-937, 6.86 µM; in the series with MCF7, 8.02 µM.

Regarding `CCCCNC(=O)COc1ccc(C(=O)c2c(CCCC)oc3ccccc23)cc1`, the EC50 in series [1] worked out at 18.9 µM. For the same molecule, the IC50 in the series with HL-60 was more than 50 µM; in the series with MDA-MB-231, 34.5 µM; in the series on U-937, 22.8 µM; with MCF7, more than 50 µM.

Take `CCCCc1oc2ccccc2c1C(=O)c1ccc(OCCCC(=O)N[C@H](C)c2ccccc2)cc1`: the IC50 in the series with HL-60 was more than 50 µM; with MDA-MB-231 it was more than 50 µM; with U-937, 30.7 µM; in the series on MCF7, more than 50 µM.

Consider `CCCCc1oc2ccccc2c1C(=O)c1cc(I)c(OCCCC2CCCC2)c(I)c1`, for which the IC50 in the series with HL-60 was more than 50 µM; in the series on MDA-MB-231, more than 50 µM; in the series with U-937 it was 42.2 µM; with MCF7, more than 50 µM.

Take `CCCCNC(=O)CCCOc1ccc(C(=O)c2c(CCCC)oc3ccccc23)cc1`: the EC50 in series [1] turned out to be 16.7 µM. Also, the IC50 with HL-60 was more than 50 µM; in the series on MDA-MB-231, 38.1 µM; in the series with U-937, 24.6 µM; in the series with MCF7 it was more than 50 µM.

For `CCCCc1oc2ccccc2c1C(=O)c1ccc(OCC(=O)N[C@@H](C)c2ccccc2)cc1`, the IC50 was more than 50 µM in the series on HL-60, more than 50 µM with MDA-MB-231, 33.8 µM in the series on U-937 and 17.9 µM with MCF7.

With `CCCCc1oc2ccccc2c1C(=O)c1ccc(OCCCC(=O)NCc2ccccc2)cc1`, the IC50 in the series on HL-60 was 28.9 µM; in the series with MDA-MB-231 it was more than 50 µM; in the series with U-937 it was 15.8 µM; in the series with MCF7, 49.7 µM.

`CCCCc1oc2ccccc2c1C(=O)c1ccc(OCC(=O)NCc2ccccc2)cc1`: the IC50 with HL-60 was more than 50 µM; in the series on MDA-MB-231, more than 50 µM; in the series on U-937, 16.3 µM; with MCF7 it was 19.6 µM.

Take `CCCCc1oc2ccccc2c1C(=O)c1cc(I)c(OCCCN2CCCC2)c(I)c1`: the Activity result in series [2], in series [3] and in series [4] was “Non-Toxic” in each case.

Take `CCCCc1oc2ccccc2c1C(=O)c1cc(I)c(OCCCN2CCN(C)CC2)c(I)c1`: the EC50 in series [1] stood at 3.46 µM. The IC50 is more than 50 µM with HL-60, 8.76 µM in the series on MDA-MB-231, more than 50 µM with U-937 and 5.37 µM in the series with MCF7.

As for `CCCCc1oc2ccccc2c1C(=O)c1cc(Cl)c(OCCCN2CCCC2)c(Cl)c1`, in series [1], the EC50 was 0.81 µM. The IC50 worked out at 11.3 µM with HL-60, 28.2 µM in the series with MDA-MB-231, 25.2 µM in the series on U-937 and 27.7 µM in the series with MCF7.

As to `CCCCc1oc2ccccc2c1C(=O)c1cc(I)c(OCCCN(CC)CC)c(I)c1`, the EC50 in series [1] turned out to be 4.15 µM. For the same molecule, the IC50 turned out to be 16 µM in the series with HL-60, 26.8 µM in the series with MDA-MB-231, 30 µM with U-937 and 21.5 µM in the series on MCF7.

As for `CCCCc1oc2ccccc2c1C(=O)c1ccc(OCC(=O)N2CCCCC2)cc1`, the EC50 in series [1] amounted to 2.68 µM. For the same molecule, the IC50 with HL-60 is more than 50 µM; in the series with MDA-MB-231, more than 50 µM; with U-937, 37.1 µM; in the series with MCF7 it was more than 50 µM.

On to `CCCCc1oc2ccccc2c1C(=O)c1ccc(OCC(=O)N2CCOCC2)cc1`, for which, in series [1], the EC50 stood at 1.23 µM. The IC50 with HL-60 is more than 50 µM; with MDA-MB-231, more than 50 µM; with U-937, 45.4 µM; in the series on MCF7 it was 34 µM.

As for `CCCCc1oc2ccccc2c1C(=O)c1ccc(OCCCC(=O)N2CCCCC2)cc1`, in series [1], the EC50 was 2.38 µM. Further, the IC50 turned out to be 31.9 µM in the series on HL-60, 36 µM in the series with MDA-MB-231, 16.6 µM in the series on U-937 and 33 µM in the series on MCF7.

With `CCCCc1oc2ccccc2c1C(=O)c1cc(I)c(OCCCN2CCCCC2)c(I)c1`, the EC50 in series [1] stood at 1.65 µM. In addition, the IC50 in the series with HL-60 turned out to be 11.5 µM; in the series with MDA-MB-231, 15.7 µM; in the series with U-937, 18.2 µM; in the series with MCF7, 37.9 µM.

Consider `CCCCc1oc2ccccc2c1C(=O)c1ccc(OCCCC(=O)N[C@@H](C)c2ccccc2)cc1`, for which, in series [1], the EC50 stood at 7.01 µM. Besides, the IC50 was more than 50 µM in the series with HL-60, more than 50 µM in the series on MDA-MB-231, 22.4 µM in the series on U-937 and more than 50 µM in the series on MCF7.

`CCCCc1oc2ccccc2c1C(=O)c1ccc(OCCCC(=O)N2CCOCC2)cc1`: in series [1], the EC50 is 3.02 µM. Besides, the IC50 stood at 34 µM in the series with HL-60, 31.6 µM in the series with MDA-MB-231, 21.4 µM in the series with U-937 and 41.2 µM in the series with MCF7.

Take `CCCCc1oc2ccccc2c1C(=O)c1ccc(OCC(=O)N[C@H](C)c2ccccc2)cc1`: the EC50 in series [1] worked out at 17.4 µM. For the same molecule, the IC50 in the series with HL-60 was more than 50 µM; in the series on MDA-MB-231, 39 µM; in the series on U-937 it was 19.8 µM; in the series with MCF7, 14.1 µM.

For `CCCCc1oc2ccccc2c1C(=O)c1ccc(OCCCN2CCCC2)cc1`, the IC50 with HL-60 was determined as 6.38 µM; in the series on MDA-MB-231 it was 19.5 µM; in the series on U-937 it was 6.82 µM; with MCF7, 3.73 µM.

Turning to `CCCCc1oc2ccccc2c1C(=O)c1cc(I)c(OCCN(CC)CC)c(I)c1` [AMIODARONE], in series [1], the EC50 is 3.25 µM.

On to `C=CCc1ccc(O)c(-c2ccc(O)c(CC=C)c2)c1` [HONOKIOL], for which the EC50 in series [1] amounted to 0.17 µM. The molecule also displayed an IC50 with MDA-MB-231 of 44.9 µM.

For `Oc1ccc(/C=C/c2cc(O)cc(O)c2)cc1` [RESVERATROL], the EC50 in series [1] worked out at 55.2 µM. The IC50 in the series on MDA-MB-231 turned out to be 98.8 µM.
